Residue numbers refer to the chain shown, from its start. Where two headings read alike, the source gives them in different places. One block for each molecule: values may come before it.
Experiments:
rat Oatp1b2 = target: T1, rat Oatp1b2 (Rattus norvegicus, UniProt Q9QZX8)
T1 sequence (Q9QZX8 1-687): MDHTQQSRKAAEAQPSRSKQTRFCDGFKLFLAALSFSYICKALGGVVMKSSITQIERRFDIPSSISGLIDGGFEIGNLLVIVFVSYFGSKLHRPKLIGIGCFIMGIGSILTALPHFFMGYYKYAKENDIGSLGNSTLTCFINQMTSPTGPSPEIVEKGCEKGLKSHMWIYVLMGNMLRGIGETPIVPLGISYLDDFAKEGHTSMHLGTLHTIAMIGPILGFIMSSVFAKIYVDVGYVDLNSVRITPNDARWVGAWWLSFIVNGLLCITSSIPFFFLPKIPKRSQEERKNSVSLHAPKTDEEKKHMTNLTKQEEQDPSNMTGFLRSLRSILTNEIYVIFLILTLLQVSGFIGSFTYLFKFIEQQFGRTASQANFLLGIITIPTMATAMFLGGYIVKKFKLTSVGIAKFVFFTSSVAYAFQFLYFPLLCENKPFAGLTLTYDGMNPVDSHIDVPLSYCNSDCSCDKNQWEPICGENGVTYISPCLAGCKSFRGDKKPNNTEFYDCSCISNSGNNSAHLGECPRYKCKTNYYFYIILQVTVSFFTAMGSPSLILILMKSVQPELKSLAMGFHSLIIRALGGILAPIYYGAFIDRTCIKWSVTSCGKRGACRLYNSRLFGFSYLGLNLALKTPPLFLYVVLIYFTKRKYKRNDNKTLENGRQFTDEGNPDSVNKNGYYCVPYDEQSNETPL

OCT1 [1] = target: T2, OCT1 (Homo sapiens, UniProt O15245)
OCT2 [2] = target: T3, OCT2 (Homo sapiens, UniProt O15244)
OCT1 [3] = target: T2, OCT1; settings: read-out: IC50, Literature Report; substrate Metformin; HEK293 Cells; Sumito I, et al., JPET, 2011; cited from earlier work
OCT2 [4] = target: T3, OCT2; settings: read-out: IC50, Literature Report; substrate Metformin; HEK293 Cells; Sumito I, et al., JPET, 2011; cited from earlier work
OATP1B1*15 = target: T4, OATP1B1*15 (Homo sapiens, UniProt Q9Y6L6, N130D/V174A); settings: for uptake reduced to: human
T4 sequence (Q9Y6L6 1-691 N130D/V174A): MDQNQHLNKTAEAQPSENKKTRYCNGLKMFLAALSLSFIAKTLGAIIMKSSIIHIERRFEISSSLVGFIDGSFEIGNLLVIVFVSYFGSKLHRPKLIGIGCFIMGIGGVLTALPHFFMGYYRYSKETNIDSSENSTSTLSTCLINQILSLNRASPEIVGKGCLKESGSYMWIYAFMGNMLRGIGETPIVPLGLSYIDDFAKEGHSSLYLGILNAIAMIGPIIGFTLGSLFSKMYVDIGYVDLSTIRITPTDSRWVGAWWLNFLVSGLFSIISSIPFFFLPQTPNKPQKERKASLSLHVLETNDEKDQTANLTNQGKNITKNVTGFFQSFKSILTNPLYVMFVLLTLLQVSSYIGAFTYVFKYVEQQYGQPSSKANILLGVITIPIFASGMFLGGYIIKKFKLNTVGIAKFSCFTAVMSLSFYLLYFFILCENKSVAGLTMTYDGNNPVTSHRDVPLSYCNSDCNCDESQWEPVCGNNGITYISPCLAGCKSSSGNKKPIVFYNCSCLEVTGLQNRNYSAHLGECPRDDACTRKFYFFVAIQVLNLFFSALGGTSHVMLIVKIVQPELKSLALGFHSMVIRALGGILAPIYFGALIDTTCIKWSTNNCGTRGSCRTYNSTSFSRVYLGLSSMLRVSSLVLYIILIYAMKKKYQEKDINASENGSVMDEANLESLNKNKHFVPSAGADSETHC

MATE1 = target: T5, MATE1 (Homo sapiens, UniProt Q96FL8); settings: 5 min, 10 µM, pH 7.4
T5 sequence (Q96FL8 1-570): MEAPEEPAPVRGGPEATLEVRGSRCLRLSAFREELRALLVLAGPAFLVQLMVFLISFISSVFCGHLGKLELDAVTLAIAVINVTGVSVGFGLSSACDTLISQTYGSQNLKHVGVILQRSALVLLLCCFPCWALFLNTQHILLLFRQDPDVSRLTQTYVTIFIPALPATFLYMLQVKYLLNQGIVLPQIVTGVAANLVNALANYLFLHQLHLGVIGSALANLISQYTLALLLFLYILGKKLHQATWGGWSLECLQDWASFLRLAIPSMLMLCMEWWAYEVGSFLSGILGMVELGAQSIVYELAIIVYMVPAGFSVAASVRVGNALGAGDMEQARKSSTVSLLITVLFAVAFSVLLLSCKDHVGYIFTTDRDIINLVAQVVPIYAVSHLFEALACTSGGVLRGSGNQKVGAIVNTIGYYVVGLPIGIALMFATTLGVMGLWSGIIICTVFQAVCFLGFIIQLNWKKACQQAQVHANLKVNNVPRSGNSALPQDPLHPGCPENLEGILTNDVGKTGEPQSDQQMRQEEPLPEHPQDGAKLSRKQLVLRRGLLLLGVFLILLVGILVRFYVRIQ

MATE2K = MATE2K (Homo sapiens, UniProt Q86VL8); settings: 5 min, 10 µM, pH 7.4
OAT3 [5] = target: T6, OAT3 (Homo sapiens, UniProt Q8TCC7); settings: read-out: Km, SLC Transporter Cells; substrate 0.5 to 32 μM, incubation 1 min
T6 sequence (Q8TCC7 1-542): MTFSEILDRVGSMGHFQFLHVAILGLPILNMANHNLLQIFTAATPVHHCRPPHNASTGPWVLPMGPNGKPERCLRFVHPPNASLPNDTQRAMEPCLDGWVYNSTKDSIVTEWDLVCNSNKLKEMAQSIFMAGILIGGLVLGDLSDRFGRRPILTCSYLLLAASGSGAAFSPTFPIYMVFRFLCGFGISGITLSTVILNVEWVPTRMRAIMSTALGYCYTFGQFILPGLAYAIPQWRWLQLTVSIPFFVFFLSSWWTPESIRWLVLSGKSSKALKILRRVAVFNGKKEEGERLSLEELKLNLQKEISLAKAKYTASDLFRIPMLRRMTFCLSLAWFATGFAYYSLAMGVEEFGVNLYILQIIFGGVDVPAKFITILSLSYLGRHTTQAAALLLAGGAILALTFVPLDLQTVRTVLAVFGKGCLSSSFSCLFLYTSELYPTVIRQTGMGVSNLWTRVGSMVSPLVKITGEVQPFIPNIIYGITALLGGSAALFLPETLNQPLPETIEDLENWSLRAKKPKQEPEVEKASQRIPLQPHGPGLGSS

OAT3 [6] = target: T6, OAT3; settings: read-out: Km, Literature Report; HEK293 cells; Ueo H, et al., Biochem Pharmacol., 2005; cited from earlier work
OATP1B1*5 = target: T7, OATP1B1*5 (Homo sapiens, UniProt Q9Y6L6, V174A)
T7 sequence (Q9Y6L6 1-691 V174A): T4 sequence (Q9Y6L6 1-691 N130D/V174A) with D130N

[7] = HEK-293 cells overexpressing the transporter

Sequence of MATE2K (Q86VL8 1-566 isoform Q86VL8-3): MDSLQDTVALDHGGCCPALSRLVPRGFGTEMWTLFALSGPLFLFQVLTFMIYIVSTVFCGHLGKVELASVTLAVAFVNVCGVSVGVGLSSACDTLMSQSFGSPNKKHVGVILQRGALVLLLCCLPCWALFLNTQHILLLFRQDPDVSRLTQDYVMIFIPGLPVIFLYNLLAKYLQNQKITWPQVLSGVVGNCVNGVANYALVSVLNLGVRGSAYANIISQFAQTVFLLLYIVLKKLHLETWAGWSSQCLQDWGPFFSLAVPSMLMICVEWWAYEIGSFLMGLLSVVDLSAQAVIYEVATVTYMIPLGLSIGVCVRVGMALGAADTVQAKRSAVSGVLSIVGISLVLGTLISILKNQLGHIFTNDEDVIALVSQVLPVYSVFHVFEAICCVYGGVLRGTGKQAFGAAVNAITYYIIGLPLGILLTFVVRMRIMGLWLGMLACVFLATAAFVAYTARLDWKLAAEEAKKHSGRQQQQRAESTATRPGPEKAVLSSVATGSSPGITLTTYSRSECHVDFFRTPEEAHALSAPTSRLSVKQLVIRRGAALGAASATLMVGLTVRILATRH
T3 sequence (O15244 whole entry): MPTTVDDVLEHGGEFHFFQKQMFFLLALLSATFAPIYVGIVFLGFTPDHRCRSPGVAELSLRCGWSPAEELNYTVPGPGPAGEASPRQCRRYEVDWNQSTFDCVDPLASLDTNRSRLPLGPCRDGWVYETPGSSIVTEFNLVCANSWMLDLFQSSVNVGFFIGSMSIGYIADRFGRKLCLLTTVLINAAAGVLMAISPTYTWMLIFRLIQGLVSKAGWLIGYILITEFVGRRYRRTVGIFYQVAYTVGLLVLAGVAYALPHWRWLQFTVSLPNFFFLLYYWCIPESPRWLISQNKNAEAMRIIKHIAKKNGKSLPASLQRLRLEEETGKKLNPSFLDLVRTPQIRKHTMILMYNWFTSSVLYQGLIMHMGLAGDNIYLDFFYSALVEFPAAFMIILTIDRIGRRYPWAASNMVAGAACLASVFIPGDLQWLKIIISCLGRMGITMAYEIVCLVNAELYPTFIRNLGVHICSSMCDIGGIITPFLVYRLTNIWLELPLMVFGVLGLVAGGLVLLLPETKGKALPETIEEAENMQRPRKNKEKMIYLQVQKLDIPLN
T2 sequence (O15245 whole entry): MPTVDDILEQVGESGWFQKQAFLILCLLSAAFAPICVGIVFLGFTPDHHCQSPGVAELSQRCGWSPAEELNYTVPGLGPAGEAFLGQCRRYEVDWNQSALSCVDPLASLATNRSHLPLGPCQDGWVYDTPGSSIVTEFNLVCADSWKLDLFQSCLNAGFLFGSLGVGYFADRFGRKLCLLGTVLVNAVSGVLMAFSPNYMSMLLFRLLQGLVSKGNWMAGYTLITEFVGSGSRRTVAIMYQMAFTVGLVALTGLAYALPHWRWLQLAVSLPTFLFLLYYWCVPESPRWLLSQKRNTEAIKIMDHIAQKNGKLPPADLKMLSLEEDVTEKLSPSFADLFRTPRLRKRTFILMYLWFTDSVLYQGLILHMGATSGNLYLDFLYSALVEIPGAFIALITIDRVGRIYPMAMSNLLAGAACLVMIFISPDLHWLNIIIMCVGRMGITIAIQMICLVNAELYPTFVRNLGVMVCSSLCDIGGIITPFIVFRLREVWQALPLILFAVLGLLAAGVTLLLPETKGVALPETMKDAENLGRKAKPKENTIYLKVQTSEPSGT

uptake of substrate (in words) (dog Oatp1b4; [7]): significant uptake
uptake of substrate (in words) (rat Oatp1b2; [7]): significant uptake
Structure (SMILES): CSCC[C@H](NC(=O)[C@H](Cc1ccc(OS(=O)(=O)O)cc1)NC(=O)[C@@H](N)CC(=O)O)C(=O)NCC(=O)N[C@@H](Cc1c[nH]c2ccccc12)C(=O)N[C@@H](CCSC)C(=O)N[C@@H](CC(=O)O)C(=O)N[C@@H](Cc1ccccc1)C(N)=O [CCK-8, cholecystokinin]

Structure (SMILES): CN/C(=N/CCSCc1nc[nH]c1C)NC#N [Cimetidine]
IC50 (OCT1 [1]): 230 µM
IC50 (OCT2 [2]): 195 µM
IC50 (OCT1 [3]): 104 µM
IC50 (OCT2 [4]): 124 µM

uptake reduced to (OATP1B1*15): 40%
Structure (SMILES): O=C(O)C[C@H](O)C[C@H](O)/C=C/c1c(C2CC2)nc2ccccc2c1-c1ccc(F)cc1 [pitavastatin]

uptake reduced to (OATP1B1*15): less than 5%
Structure (SMILES): CC(C)n1c(/C=C/C(O)CC(O)CC(=O)O)c(-c2ccc(F)cc2)c2ccccc21 (stereo not shown) [fluvastatin]

uptake of substrate (in words) (monkey Oatp1b1): significant uptake
uptake of substrate (in words) (dog Oatp1b4): significant uptake
uptake of substrate (in words) (rat Oatp1b2): significant uptake
Structure (SMILES): CC(C)c1nc(N(C)S(C)(=O)=O)nc(-c2ccc(F)cc2)c1/C=C/[C@@H](O)C[C@@H](O)CC(=O)O [rosuvastatin]

UPTAKE ACTIVITY SLC transporter (MATE1): 71.4 pmol/mg/min
Uptake Ratio (MATE1): 12
UPTAKE ACTIVITY SLC transporter (MATE2K): 33.5 pmol/mg/min
Uptake Ratio (MATE2K): 6.5
Structure (SMILES): CN(C)C(=N)N=C(N)N [Metformin]

Structure (SMILES): C[C@]12CC[C@@H]3c4ccc(OS(=O)(=O)O)cc4CC[C@H]3[C@@H]1CCC2=O [E3S, Estrone-3-sulfate]
Km (OAT3 [5]): 4 µM
Km (OAT3 [6]): 6.3 µM

uptake activity / transport compared to OATP1B1*1a cells (in words) (OATP1B1*5): Significant decrease in uptake activity
uptake activity / transport compared to OATP1B1*1a cells (in words) (OATP1B1*15): Significant decrease in uptake activity
Structure (SMILES): CC(C)c1c(C(=O)Nc2ccccc2)c(-c2ccccc2)c(-c2ccc(F)cc2)n1CC[C@@H](O)C[C@@H](O)CC(=O)O [atorvastatin]
